Test results from US20250257331A1, “FLAVONOID GLYCOSIDE GLYCOSYLTRANSFERASE LbUGT71BX1 IN LAPORTEA BULBIFERA AS WELL AS THE CODING GENE AND THE USE THEREOF” (INSTITUTE OF CHINESE MATERIA MEDICA CHINA ACADEMY OF …, priority 2024, published 2025).
Entries after “also recorded” stand apart in the source; their conditions may differ.

Tested on: glycosyltransferase LbUGT71BX1
Experiment: in-vitro enzyme activity testing of recombinant LbUGT71BX1 with flavonoid substrates and UDP-sugar donors (LC-Q-TOF-MS)
Type: biochemical, Laportea bulbifera
Settings: purified recombinant enzyme, 37° C., 1 hour, Tris-HCl pH 7.5, compared with pMAL-c2X empty control
Procedure: The in-vitro enzyme activity testing steps are as follows: the 50 μL reaction system contained 1 μL flavonoid substrate (40 mM) (kaempferol or myricetin or gossypetin or quercetagetin), 1 μL UDP-sugar donor (100 mM) (UDP-galactose or UDP-glucose) and […] purified enzyme, and Tris-HCl buffer (pH 7.5) was used to complement the system. With the pMAL-c2X empty crude enzyme catalytic system as a negative control, place the reaction system at 37° C. for 1 hour, and add the same volume of methanol to stop the reaction. Concentrate the above mixture in vacuo and reconstitute it with 100 μL of methanol. Perform filtration using a 0.22 m microporous membrane and transfer the sample to a liquid vial for assay. Use the Agilent 1290 Infinity II-6430 Q-TOF to test the sample. The specific liquid conditions are as follows: (1) Column: ACQUITY UPLC BEH C18 1.7 m 2.1×100 mm; (2) Mobile phase: 0.1% pure water for phase A and chromatographic acetonitrile for phase B; (3) Flow rate: 0.3 mL/min; (4) Column temperature: 40° C.; (5) Injection volume: 1.0 μL; (6) Elution conditions are shown in Table 6. The mass spectrometry conditions are: the ion mode is negative ion, the scan range is 100-3000; the mode is Automated MS/MS; the ion fragment collision energy is 20 V; the source temperature is 350° C.; the nebulizer pressure is set to 30 psi.

Row | SMILES | product generated from the flavonoid substrate by LbUGT71BX1 (UDP-glucose as sugar donor) | product generated from the flavonoid substrate by LbUGT71BX1 (UDP-galactose as sugar donor)
1 | O=c1c(O)c(-c2ccc(O)c(O)c2)oc2c(O)c(O)cc(O)c12 [gossypetin] | gossypetin-3-O-glucoside | 
2 | O=c1c(O)c(-c2ccc(O)cc2)oc2cc(O)cc(O)c12 [kaempferol] | kaempferol-3-O-glucoside | kaempferol-3-O-galactoside
3 | O=c1c(O)c(-c2cc(O)c(O)c(O)c2)oc2cc(O)cc(O)c12 [myricetin] | myricetin-3-O-glucoside; also recorded: myricetin-7-O-glucoside | myricetin-3-O-galactoside
